Measurements: ChEMBL document CHEMBL1909046, “DrugMatrix in vitro pharmacology data”

Columns and labels:
[1] = DRUGMATRIX: Imidazoline I2, Central radioligand binding (ligand: [3H] Idazoxan); format: cell membranes, Rattus norvegicus, Wistar, Cerebral cortex, Membrane; settings: Not Active = under 50% inhibition at 10 µM
[2] = target: Matrix metalloproteinase-9 (Homo sapiens, UniProt P14780); format: cell-based;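 also: inhibition of isolated MMP-9 enzyme activity toward a synthetic peptide substrate, from the DrugMatrix protease screening panel; in other assays of this panel Not Active means under 50% inhibition at 10 µM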
Matrix metalloproteinase-9, sequence (P14780 whole entry): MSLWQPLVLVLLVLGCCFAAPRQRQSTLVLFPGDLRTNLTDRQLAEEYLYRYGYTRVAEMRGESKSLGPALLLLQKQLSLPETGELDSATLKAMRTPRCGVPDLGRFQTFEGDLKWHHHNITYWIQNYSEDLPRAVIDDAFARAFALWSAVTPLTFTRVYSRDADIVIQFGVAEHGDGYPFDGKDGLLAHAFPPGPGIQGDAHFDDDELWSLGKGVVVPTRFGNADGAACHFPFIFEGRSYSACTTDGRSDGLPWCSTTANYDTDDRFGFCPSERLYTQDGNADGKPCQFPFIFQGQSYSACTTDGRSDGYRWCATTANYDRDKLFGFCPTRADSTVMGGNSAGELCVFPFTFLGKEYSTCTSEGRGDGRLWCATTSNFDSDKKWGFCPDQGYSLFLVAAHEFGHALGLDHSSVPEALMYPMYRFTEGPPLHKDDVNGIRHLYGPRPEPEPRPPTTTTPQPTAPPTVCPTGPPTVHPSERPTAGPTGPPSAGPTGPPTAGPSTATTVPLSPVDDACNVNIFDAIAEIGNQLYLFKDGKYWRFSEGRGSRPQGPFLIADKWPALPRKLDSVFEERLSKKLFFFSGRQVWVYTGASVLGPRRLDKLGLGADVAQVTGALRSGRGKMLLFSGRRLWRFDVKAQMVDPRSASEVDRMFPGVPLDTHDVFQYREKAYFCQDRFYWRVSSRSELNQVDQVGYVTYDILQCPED

[3] = target: T1, Adenosine receptor A1 (Homo sapiens, UniProt P30542); format: cell membranes, CHO, Membrane; settings: cho;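 also: radioligand binding assay at the adenosine A1 receptor, with DPCPX serving as the labelled ligand; in other assays of this panel Not Active means under 50% inhibition at 10 µM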
T1 sequence (P30542 whole entry): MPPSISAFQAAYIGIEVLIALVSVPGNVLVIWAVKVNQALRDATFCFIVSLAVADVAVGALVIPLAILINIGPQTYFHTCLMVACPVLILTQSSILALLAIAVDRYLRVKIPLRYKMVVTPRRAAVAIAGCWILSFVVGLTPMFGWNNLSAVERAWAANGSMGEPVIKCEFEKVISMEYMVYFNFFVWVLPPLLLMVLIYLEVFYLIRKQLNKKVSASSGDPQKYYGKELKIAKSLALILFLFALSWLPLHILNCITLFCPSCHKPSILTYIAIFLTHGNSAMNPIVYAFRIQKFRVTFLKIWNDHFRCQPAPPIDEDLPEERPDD

[4] = DRUGMATRIX: Phosphodiesterase PDE4 enzyme inhibition (substrate: [3H]cAMP + cAMP); settings: u-937; Not Active = under 50% inhibition at 10 µM
[5] = target: Adenosine receptor A2a (Homo sapiens, UniProt P29274); test: DRUGMATRIX: Adenosine A2A radioligand binding (ligand: […]); format: cell membranes, HEK293, Membrane; settings: hek293; Not Active = under 50% inhibition at 10 µM
Adenosine receptor A2a, sequence (P29274 whole entry): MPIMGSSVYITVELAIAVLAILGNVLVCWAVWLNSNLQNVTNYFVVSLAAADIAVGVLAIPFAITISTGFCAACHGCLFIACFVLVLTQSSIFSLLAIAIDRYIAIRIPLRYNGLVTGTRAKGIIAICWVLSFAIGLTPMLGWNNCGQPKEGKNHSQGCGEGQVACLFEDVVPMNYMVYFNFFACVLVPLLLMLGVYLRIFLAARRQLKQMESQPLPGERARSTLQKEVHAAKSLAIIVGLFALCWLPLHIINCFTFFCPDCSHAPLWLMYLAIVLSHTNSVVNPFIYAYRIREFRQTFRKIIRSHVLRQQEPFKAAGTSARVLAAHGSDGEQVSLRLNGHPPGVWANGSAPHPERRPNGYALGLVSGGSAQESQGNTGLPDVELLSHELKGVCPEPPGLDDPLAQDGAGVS

[6] = target: T2, Vasoactive intestinal polypeptide receptor 1 (Homo sapiens, UniProt P32241); format: cell membranes, Membrane; settings: ht-29; also: in other assays of this panel Not Active means under 50% inhibition at 10 µM
T2 sequence (P32241 whole entry): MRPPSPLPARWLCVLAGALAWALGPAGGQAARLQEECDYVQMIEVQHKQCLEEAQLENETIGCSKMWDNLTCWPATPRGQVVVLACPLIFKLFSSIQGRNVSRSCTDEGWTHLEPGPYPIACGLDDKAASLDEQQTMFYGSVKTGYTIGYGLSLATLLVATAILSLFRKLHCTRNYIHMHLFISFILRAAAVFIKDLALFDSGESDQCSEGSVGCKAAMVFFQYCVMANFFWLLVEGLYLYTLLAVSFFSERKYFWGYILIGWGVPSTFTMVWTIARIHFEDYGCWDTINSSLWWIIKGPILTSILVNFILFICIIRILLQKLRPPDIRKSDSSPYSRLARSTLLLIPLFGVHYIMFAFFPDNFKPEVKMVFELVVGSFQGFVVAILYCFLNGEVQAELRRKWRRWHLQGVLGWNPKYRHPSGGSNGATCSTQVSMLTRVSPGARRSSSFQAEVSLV

[7] = DRUGMATRIX: Serotonin (5-Hydroxytryptamine) 5-HT3 radioligand binding (ligand: [3H] GR-65630); format: cell membranes, Membrane; settings: hek293, Not Active = under 50% inhibition at 10 µM

| Compound | IC50 [1] | Ki [1] | IC50 [2] | IC50 [3] | IC50 [4] | Ki [4] | IC50 [5] | IC50 [6] | IC50 [7] | Ki [7] | IC50 ([1]; read-out: IC50) [nM] | Ki ([1]; read-out: Ki) [nM] | IC50 ([7]; read-out: IC50) [nM] | Ki ([7]; read-out: Ki) [nM] |
| --- | --- | --- | --- | --- | --- | --- | --- | --- | --- | --- | --- | --- | --- | --- |
| CO[C@@H]1[C@@H](OC)[C@H](C)[C@@](O)(CC(=O)O)O[C@H]1[C@H](C)[C@H]1O[C@@]2(CC[C@@](C)([C@H]3CC[C@@](C)([C@@H]4O[C@@H]([C@H]5O[C@](C)(O)[C@H](C)C[C@@H]5C)C[C@@H]4O[C@@H]4C[C@H](OC)[C@@H](OC)[C@H](C)O4)O3)O2)C[C@H](O)[C@H]1C.N [MADURAMICIN] | Not Active | Not Active | Not Active | Not Active | Not Active | Not Active | Not Active | Not Active | Not Active | Not Active |  |  |  |  |
| CCOC(=O)C1=C(C)NC(C)=C(C(=O)OCC)C1c1ccccc1/C=C/C(=O)OC(C)(C)C [LACIDIPINE] | Not Active | Not Active | Not Active | Not Active | Not Active | Not Active | Not Active | Not Active | Not Active | Not Active |  |  |  |  |
| CC(C)(C)NC[C@H](O)COc1cccc2c1CCCC2=O [LEVOBUNOLOL] | Not Active | Not Active | Not Active | Not Active | Not Active | Not Active | Not Active | Not Active | Not Active | Not Active |  |  |  |  |
| Cc1[nH]c(=O)c(C#N)cc1-c1ccncc1 [MILRINONE] | Not Active | Not Active | Not Active | Not Active | Not Active | Not Active | Not Active | Not Active | Not Active | Not Active |  |  |  |  |
| C1CCN2C[C@@H]3C[C@@H](CN4CCCC[C@@H]34)[C@H]2C1 [SPARTEINE] | Not Active | Not Active | Not Active | Not Active | Not Active | Not Active | Not Active | Not Active | Not Active | Not Active |  |  |  |  |
| Cc1cnc(NC(=O)C2=C(O)c3ccccc3S(=O)(=O)N2C)s1 [MELOXICAM] | Not Active | Not Active | Not Active | Not Active | Not Active | Not Active | Not Active | Not Active | Not Active | Not Active |  |  |  |  |
| CO[C@@]12[C@H](COC(N)=O)C3=C(C(=O)C(C)=C(N)C3=O)N1C[C@@H]1N[C@@H]12 [MITOMYCIN] | Not Active | Not Active | Not Active | Not Active | Not Active | Not Active | Not Active | Not Active | Not Active | Not Active |  |  |  |  |
| CC(Cl)(Cl)Cl [TRICHLOROETHANE] | Not Active | Not Active | Not Active | Not Active | Not Active | Not Active | Not Active | Not Active | Not Active | Not Active |  |  |  |  |
| O=[As][O-].[Na+] [SODIUM ARSENITE] | Not Active | Not Active | Not Active | Not Active | Not Active | Not Active | Not Active | Not Active | Not Active | Not Active |  |  |  |  |
| Cc1ccc(Cl)c(Nc2ccccc2C(=O)O)c1Cl [MECLOFENAMIC ACID] | Not Active | Not Active | Not Active | Not Active | Not Active | Not Active | Not Active | Not Active | Not Active | Not Active |  |  |  |  |
| Cc1ccc(S(=O)(=O)NC(=O)NN2CCCCCC2)cc1 [TOLAZAMIDE] | Not Active | Not Active | Not Active | Not Active | Not Active | Not Active | Not Active | Not Active | Not Active | Not Active |  |  |  |  |
| O=C(O)c1cc(/N=N/c2ccc(S(=O)(=O)Nc3ccccn3)cc2)ccc1O [SULFASALAZINE] | Not Active | Not Active | Not Active | Not Active | Not Active | Not Active | Not Active | Not Active | Not Active | Not Active |  |  |  |  |
| CC(=O)O[C@]1(C(C)=O)CC[C@H]2[C@@H]3C[C@H](C)C4=CC(=O)CC[C@]4(C)[C@H]3CC[C@@]21C [MEDROXYPROGESTERONE ACETATE] | Not Active | Not Active | Not Active | Not Active | Not Active | Not Active | Not Active | Not Active | Not Active | Not Active |  |  |  |  |
| CC[C@H](C)C(=O)O[C@H]1CCC=C2C=C[C@H](C)[C@H](CC[C@@H]3C[C@@H](O)CC(=O)O3)[C@H]21 [MEVASTATIN] | Not Active | Not Active | Not Active | Not Active | Not Active | Not Active | Not Active | Not Active | Not Active | Not Active |  |  |  |  |
| CCN(CC)CCNC(=O)c1cc(Cl)c(N)cc1OC [METOCLOPRAMIDE] |  |  | Not Active | Not Active | Not Active | Not Active | Not Active | Not Active |  |  | 708 | 472 | 4010 | 902 |
| Cc1nnc(NS(=O)(=O)c2ccc(N)cc2)s1 [SULFAMETHIZOLE] | Not Active | Not Active | Not Active | Not Active | Not Active | Not Active | Not Active | Not Active | Not Active | Not Active |  |  |  |  |
| CCC(C)(C)C(=O)O[C@H]1C[C@@H](C)C=C2C=C[C@H](C)[C@H](CC[C@@H]3C[C@@H](O)CC(=O)O3)[C@H]21 [SIMVASTATIN] | Not Active | Not Active | Not Active | Not Active | Not Active | Not Active | Not Active | Not Active | Not Active | Not Active |  |  |  |  |
| CN1C(=O)OC(C)(C)C1=O [TRIMETHADIONE] | Not Active | Not Active | Not Active | Not Active | Not Active | Not Active | Not Active | Not Active | Not Active | Not Active |  |  |  |  |
| CC[C@H](C)[C@@H](CO[C@@H](Cc1ccccc1)C(=O)N[C@@H](CCS(C)(=O)=O)C(=O)OC(C)C)NC[C@@H](N)CS | Not Active | Not Active | Not Active | Not Active | Not Active | Not Active | Not Active | Not Active | Not Active | Not Active |  |  |  |  |
| OC[C@@H](O)[C@@H](O)[C@H](O)[C@H](O)CO [MANNITOL] | Not Active | Not Active | Not Active | Not Active | Not Active | Not Active | Not Active | Not Active | Not Active | Not Active |  |  |  |  |
| Cc1cn([C@H]2C=C[C@@H](CO)O2)c(=O)[nH]c1=O [STAVUDINE] | Not Active | Not Active | Not Active | Not Active | Not Active | Not Active | Not Active | Not Active | Not Active | Not Active |  |  |  |  |
| C[N+]1(C)[C@@H]2C[C@@H](OC(=O)[C@H](CO)c3ccccc3)C[C@H]1[C@@H]1O[C@@H]12.[Br-] [METHSCOPOLAMINE BROMIDE] | Not Active | Not Active | Not Active | Not Active | Not Active | Not Active | Not Active | Not Active | Not Active | Not Active |  |  |  |  |
| CC1=C(/C=C/C(C)=C/C=C/C(C)=C/C(=O)O)C(C)(C)CCC1 [TRETINOIN] | Not Active | Not Active | Not Active | Not Active | Not Active | Not Active | Not Active | Not Active | Not Active | Not Active |  |  |  |  |
